Assay results taken from patent publication US6783949B1, “Processes for determining whether a test substance contains lipases or lipase inhibitors” (Aventis Pharma Deutschland GmbH, priority 1999, dated 2004).

Molecular target: T1, HSL (Rattus norvegicus, UniProt P15304)
T1 construct: The partially purified HSL can be stored at −70° C. for 4 to 6 weeks; from tissue; host or cells: rat epididymal fat cells (male Wistar rats)
T1 sequence (P15304 1-768 isoform P15304-2): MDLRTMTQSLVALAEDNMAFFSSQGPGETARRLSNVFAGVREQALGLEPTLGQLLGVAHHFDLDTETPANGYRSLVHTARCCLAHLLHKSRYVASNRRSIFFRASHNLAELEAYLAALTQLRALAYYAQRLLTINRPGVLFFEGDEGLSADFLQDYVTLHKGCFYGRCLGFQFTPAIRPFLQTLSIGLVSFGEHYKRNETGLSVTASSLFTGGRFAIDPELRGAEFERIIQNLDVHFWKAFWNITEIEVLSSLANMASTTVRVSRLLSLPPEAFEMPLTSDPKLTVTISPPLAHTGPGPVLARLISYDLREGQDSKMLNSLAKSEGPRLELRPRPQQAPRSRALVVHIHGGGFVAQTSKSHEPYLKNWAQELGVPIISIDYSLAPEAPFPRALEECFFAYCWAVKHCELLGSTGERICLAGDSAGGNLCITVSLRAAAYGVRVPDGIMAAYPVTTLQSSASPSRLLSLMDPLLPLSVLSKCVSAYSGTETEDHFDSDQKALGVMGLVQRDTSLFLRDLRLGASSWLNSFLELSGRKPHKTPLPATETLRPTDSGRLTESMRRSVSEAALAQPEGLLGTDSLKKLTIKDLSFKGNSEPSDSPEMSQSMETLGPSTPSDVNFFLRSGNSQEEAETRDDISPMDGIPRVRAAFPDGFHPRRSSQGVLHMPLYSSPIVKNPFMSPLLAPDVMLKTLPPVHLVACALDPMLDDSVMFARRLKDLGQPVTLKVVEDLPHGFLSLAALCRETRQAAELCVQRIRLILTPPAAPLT
Experiment: Indirect NAG assay (extinction increase at 481 nm)
Format: biochemical
Details: for Absorption change, Decrease, 550 nm / Absorption change, Increase, 481 nm / Increase in the absorption at 481 nm: NAG 0.05 mg/ml
Method: A typical reaction is carried out at 30° C. for 60 min, for example in 1.5 ml Eppendorf vessels or 96-hole plates. […] 180 μl of the substrate solution (20 μg/ml of phosphatidylcholine, 10 μg/ml of phosphatidylinositol, 50 μg/ml of NAG in assay buffer) are added. After a preincubation for 15 min at 30° C., 20 μl of HSL in assay buffer are pipetted in and the extinction is immediately measured (see above) at 481 nm in a cuvette photometer (0.5 ml cuvette) or microtiter plate reader. After a certain incubation time, which is variable and depends on the chosen enzyme concentration and can be between 2 and 240 minutes, in this case incubation at 30° C. for 60 min, the extinction is measured again. The increase in the extinction in the yellow region, in this case at 481 nm, is a measure of the enzyme activity.
Isolated rat fat cells are obtained from epididymal fatty tissue from untreated male rats (Wistar, 220-250 g) by collagenase treatment according to published processes. The fat cells from 10 rats are washed three times by flotation with 50 ml each of homogenization buffer ([…], pH 7.4, 0.25 M sucrose, 1 mM ethylenediamine-N,N,N′,N′-tetraacetic acid (EDTA), 1 mM dithiothreitol (DTT), 10 μg/ml of leupeptin, 10 μg/ml of antipain, 20 μg/ml of pepstatin) and finally taken up in 10 ml of homogenization buffer. The fat cells are homogenized in a Teflon-in-glass homogenizer (Braun-Melsungen) by 10 strokes at 1500 rpm and 15° C. The homogenizate is centrifuged (Sorvall SM24 tubes, 5000 rpm, 10 min, 4° C.). The […] between the overlying fatty layer and the pellet is removed and the centrifugation is repeated. The […] resulting from this is centrifuged again (Sorvall SM24 tubes, 20,000 rpm, 45 min, 4° C.). […] After incubation for 60 min at 4° C. (shake at intervals of 15 min), the batch is centrifuged (Sorvall SM24 tubes, 3000 rpm, 10 min, 4° C.). The supernatant is brought to pH 5.2 by addition of glacial acetic acid and incubated at 4° C. for 30 min. […] The suspension is dialyzed overnight at 4° C. against 25 mM TRIS/HCl, pH 7.4, 50% glycerol, 1 mM DTT, and 10 μg/ml of leupeptin, pepstatin, and antipain and then applied to a hydroxylapatite column (0.1 g per 1 ml of suspension, equilibrated with 10 mM potassium phosphate, pH 7.0, 30% glycerol, 1 mM DTT). The column is washed with four volumes of equilibration buffer at a flow rate of 20 to 30 ml/h. The HSL is eluted with a volume of equilibration buffer which contains 0.5 M potassium phosphate, then dialyzed (see above) and concentrated 5 to 10 times by ultrafiltration (Amicon Diaflo PM 10 filter) at 4° C. The partially purified HSL can be stored at −70° C. for 4 to 6 weeks.
6 mg of phosphatidylcholine and 6 mg of phosphatidylinositol are dissolved in 1 ml of chloroform each. 10 mg of NAG are dissolved in 1 ml of chloroform. […] The chloroform (225 μl total volume) is completely removed by overblowing with a stream of N2. The dried substrate can be stored at 4° C. for up to three days. For the preparation of the phospholipid vesicles/micelles having intercalated NAG (on the test day), the dried substrate is taken up in 20 ml of assay buffer (25 mM TRIS/HCl, pH 7.4; 150 mM NaCl) and two ultrasonic treatments with an ultrasonic probe (Branson Sonifier type 11, standard microtip): 1st treatment setting 2, 2×1 min, in between in each case 1 min on ice; 2nd treatment setting 4, 2×1 min, in between in each case 1 min on ice. […] Before use as a substrate (within the next 2 h), the solution is additionally incubated on ice for 15 min.
The assay is carried out at 30° C. for 60 min in 1.5 ml Eppendorf vessels or 96-hole plates.

In the case of `O=C(CCCCCCCCCCCNc1ccc([N+](=O)[O-])c2nonc12)OCC(O)CO` (stereo not drawn) [Compound (3)], the Signal strength (20 μg of protein, 0.05 mg/ml of NAG) was 0.6 to 0.7 OD, the “Absorption change, Decrease, 550 nm” value (HSL 1 μg, 60 min) was 866 ± 94 arb. units and the “Absorption change, Increase, 481 nm” value (HSL 1 μg, 60 min) was 156 ± 21 arb. units. For the same compound, the “Absorption change, Decrease, 550 nm” value (HSL 2 μg, 60 min) was 841 ± 78 arb. units, the “Absorption change, Increase, 481 nm” value (HSL 2 μg, 60 min) was 347 ± 40 arb. units and the “Increase in the absorption at 481 nm” value (HSL 5 μg, 1 min) was 12 ± 2 arb. units. For the same compound, the “Increase in the absorption at 481 nm” value (HSL 5 μg, 2 min) was 23 ± 4 arb. units, the “Increase in the absorption at 481 nm” value (HSL 5 μg, 5 min) was 45 ± 9 arb. units and the “Increase in the absorption at 481 nm” value (HSL 5 μg, 10 min) was 105 ± 18 arb. units. The “Increase in the absorption at 481 nm” value (HSL 5 μg, 15 min) was 155 ± 20 arb. units, the “Increase in the absorption at 481 nm” value (HSL 5 μg, 20 min) was 219 ± 31 arb. units and the “Increase in the absorption at 481 nm” value (HSL 5 μg, 30 min) was 295 ± 47 arb. units. The “Increase in the absorption at 481 nm” value (HSL 5 μg, 45 min) was 453 ± 52 arb. units, the “Absorption change, Decrease, 550 nm” value (HSL 5 μg, 60 min) was 779 ± 82 arb. units and the “Absorption change, Increase, 481 nm” value (HSL 5 μg, 60 min) was 791 ± 88 arb. units. For the same compound, the “Increase in the absorption at 481 nm” value (HSL 5 μg, 60 min) was 677 ± 70 arb. units, the “Increase in the absorption at 481 nm” value (HSL 5 μg, 75 min) was 831 ± 92 arb. units and the “Increase in the absorption at 481 nm” value (HSL 5 μg, 90 min) was 995 ± 82 arb. units. The “Increase in the absorption at 481 nm” value (HSL 5 μg, 120 min) was 1455 ± 102 arb. units, the “Increase in the absorption at 481 nm” value (HSL 5 μg, 180 min) was 1937 ± 121 arb. units and the “Absorption change, Decrease, 550 nm” value (HSL 7.5 μg, 60 min) was 759 ± 69 arb. units. For the same compound, the “Absorption change, Increase, 481 nm” value (HSL 7.5 μg, 60 min) was 1066 ± 120 arb. units, the “Increase in the absorption at 481 nm” value (HSL 10 μg, 1 min) was 19 ± 4 arb. units and the “Increase in the absorption at 481 nm” value (HSL 10 μg, 2 min) was 51 ± 9 arb. units. The “Increase in the absorption at 481 nm” value (HSL 10 μg, 5 min) was 102 ± 19 arb. units, the “Increase in the absorption at 481 nm” value (HSL 10 μg, 10 min) was 185 ± 26 arb. units and the “Increase in the absorption at 481 nm” value (HSL 10 μg, 15 min) was 288 ± 39 arb. units. The “Increase in the absorption at 481 nm” value (HSL 10 μg, 20 min) was 395 ± 36 arb. units, the “Increase in the absorption at 481 nm” value (HSL 10 μg, 30 min) was 517 ± 67 arb. units and the “Increase in the absorption at 481 nm” value (HSL 10 μg, 45 min) was 830 ± 57 arb. units. The “Absorption change, Decrease, 550 nm” value (HSL 10 μg, 60 min) was 650 ± 61 arb. units, the “Absorption change, Increase, 481 nm” value (HSL 10 μg, 60 min) was 1255 ± 141 arb. units and the “Increase in the absorption at 481 nm” value (HSL 10 μg, 60 min) was 1179 ± 110 arb. units. For the same compound, the “Increase in the absorption at 481 nm” value (HSL 10 μg, 75 min) was 1487 ± 104 arb. units, the “Increase in the absorption at 481 nm” value (HSL 10 μg, 90 min) was 1844 ± 130 arb. units and the “Increase in the absorption at 481 nm” value (HSL 10 μg, 120 min) was 2745 ± 195 arb. units. The “Increase in the absorption at 481 nm” value (HSL 10 μg, 180 min) was 3521 ± 254 arb. units, the “Absorption change, Decrease, 550 nm” value (HSL 15 μg, 60 min) was 540 ± 55 arb. units and the “Absorption change, Increase, 481 nm” value (HSL 15 μg, 60 min) was 2351 ± 205 arb. units. For the same compound, the “Increase in the absorption at 481 nm” value (HSL 20 μg, 1 min) was 5 ± 7 arb. units, the “Increase in the absorption at 481 nm” value (HSL 20 μg, 2 min) was 78 ± 12 arb. units and the “Increase in the absorption at 481 nm” value (HSL 20 μg, 5 min) was 193 ± 36 arb. units. For the same compound, the “Increase in the absorption at 481 nm” value (HSL 20 μg, 10 min) was 423 ± 62 arb. units, the “Increase in the absorption at 481 nm” value (HSL 20 μg, 15 min) was 617 ± 70 arb. units and the “Increase in the absorption at 481 nm” value (HSL 20 μg, 20 min) was 865 ± 93 arb. units. The “Increase in the absorption at 481 nm” value (HSL 20 μg, 30 min) was 1143 ± 216 arb. units, the “Increase in the absorption at 481 nm” value (HSL 20 μg, 45 min) was 1877 ± 206 arb. units and the “Absorption change, Decrease, 550 nm” value (HSL 20 μg, 60 min) was 287 ± 51 arb. units. The “Absorption change, Increase, 481 nm” value (HSL 20 μg, 60 min) was 2867 ± 199 arb. units, the “Increase in the absorption at 481 nm” value (HSL 20 μg, 60 min) was 2510 ± 295 arb. units and the “Increase in the absorption at 481 nm” value (HSL 20 μg, 75 min) was 3067 ± 310 arb. units. The “Increase in the absorption at 481 nm” value (HSL 20 μg, 90 min) was 3527 ± 188 arb. units, the “Increase in the absorption at 481 nm” value (HSL 20 μg, 120 min) was 4941 ± 410 arb. units and the “Increase in the absorption at 481 nm” value (HSL 20 μg, 180 min) was 5712 ± 399 arb. units. For the same compound, the “Absorption change, Decrease, 550 nm” value (HSL 25 μg, 60 min) was 198 ± 44 arb. units, the “Absorption change, Increase, 481 nm” value (HSL 25 μg, 60 min) was 3428 ± 270 arb. units and the “Absorption change, Decrease, 550 nm” value (HSL 30 μg, 60 min) was 115 ± 35 arb. units. The “Absorption change, Increase, 481 nm” value (HSL 30 μg, 60 min) was 3973 ± 244 arb. units, the “Increase in the absorption at 481 nm” value (HSL 40 μg, 1 min) was 91 ± 14 arb. units and the “Increase in the absorption at 481 nm” value (HSL 40 μg, 2 min) was 89 ± 32 arb. units. The “Increase in the absorption at 481 nm” value (HSL 40 μg, 5 min) was 395 ± 62 arb. units, the “Increase in the absorption at 481 nm” value (HSL 40 μg, 10 min) was 784 ± 88 arb. units and the “Increase in the absorption at 481 nm” value (HSL 40 μg, 15 min) was 1060 ± 144 arb. units.
